Experiment: deoxyribose (dR) degradation test, hydroxyl radical scavenging
Assay type: biochemical
Experimental: Trans-UCA, cis-UCA, related imidazoles and non-imidazole compounds were tested with regard to their ability to compete with deoxyribose to scavenge hydroxyl radicals. On exposure to hydroxyl radicals deoxyribose is degraded into malondialdehyde, which reacts with thiobarbituric acid to form a pink chromogen. Powerful hydroxyl-radical scavengers will compete with deoxyribose, resulting in a reduced amount of malondialdehyde. Ten compounds, UCA, UCA analogues, alanine and uric acid (FIG. 1) were tested on their ability to scavenge hydroxyl radicals.
Method: the deoxyribose (dR) degradation test. The test was analogous to an earlier described method. Briefly, the reactions were performed in 5 mL screw cap glass tubes in a final volume of 1.0 mL sodium phosphate buffer (50 mM; pH 7.2), containing 3.0 mM 2 deoxy-D-ribose, 0.5 mM hydrogen peroxide and one of the test compounds at graded concentrations. The reaction was started by the addition of premixed disodium EDTA and ferrous iron solution (final concentrations 0.5 mM and 0.2 mM, respectively). The mixture was left for 15 minutes at room temperature. After addition of 1.0 mL 1% thiobarbituric acid in 50 mM NaOH and 0.75 mL 2.8% trichloroacetic acid, the tubes were heated for 20 minutes in a boiling water bath. The pink color was read at 532 nm and reciprocal absorption values were plotted against the concentration of the test compound after subtraction of appropriate blanks. A series of six duplicate determinations from test compound dilutions was employed to construct a graph slope for the calculation of a rate constant value. The mean, SD, number of rate constants and the percentage of inhibition of deoxyribose degradation, calculated for each test compound, are listed. Results. All second-order rate constants for reaction with hydroxyl radicals and, in addition, the percentage inhibition of deoxyribose degradation with equimolar concentrations (3 mM) of scavenger are summarized in Table 1. Trans-UCA and cis-UCA are substantially more powerful in scavenging hydroxyl radicals (8.0 and 7.1×10^3 M^−1,s^−1, respectively), than the other 4-(5-)-substituted imidazoles, including L-histidine (2.6×10^2 M^−1,s^−1). L-histidine, the precursor of UCA, was included as a known moderate scavenger with structural similarities to UCA. L-alanine was used as a known poor scavenger. Trans-FAA was tested as a non-imidazole acrylic acid derivative, having a furan ring instead.
FIG. 2. A determination of the second order rate constants of trans-UCA and cis-UCA with hydroxyl radicals. The rate constant was derived from the slope of the line (k=slope×kdR×[dR]×A0), where A0 is the absorbance, measured in the absence of hydroxyl radical scavenger. KdR was taken as 3.1×10^9 M^−1,s^−1, derived from pulse radiolysis studies, and [dR]=3 mM. […] The other scavengers were studied similarly.

With `O=C(O)/C=C/c1cnc[nH]1` [trans-Urocanic acid, Trans-urocanic acid] the “INHIBITION of DEOXYRIBOSE DEGRADATION” value ([SCAVENGER] = [DEOXYRIBOSE] = 3 Mm) was 67%, the “SECOND ORDER RATE CONSTANT for reaction with hydroxyl radicals” value (mean of n slopes, sodium phosphate buffer pH 7.2) was 8e+09 M⁻¹ s⁻¹ and the “second order rate constant in the particular set of FIG. 2” value (single set of FIG. 2, kdR 3.1×10^9, [dR]=3 mM) was 8.49 ×10^9 M^−1,s^−1.
